PMC6825215, “An anionic, endosome-escaping polymer to potentiate intracellular delivery of cationic peptides, biomacromolecules, and nanoparticles” (Nature Communications, 2019)
Read-outs that look alike come from different tables or passages of the source. Where no end group is shown, it is not given here.

What was measured:
HCAVSMCs = experiment: Inhibitor uptake studies; assay type: cell-based, human; conditions: for inhibition at 100 µM / inhibition at 0.1 µM: Homo sapiens; for effect of inhibitor during PPAA pretreatment only on subsequent YARA-MK2i peptide uptake: no inhibitor present during peptide treatment
[1] = tested on: Luciferase expressing A7r5 cells; experiment: Luciferase gene-silencing assay; assay type: cell-based, rat; conditions: sequentially delivered 25 nM siRNA as peptide-siRNA polyplexes
Procedure: Luciferase expressing A7r5 cells were seeded in a black, clear bottom 96-well plate at a density of 10,000 cells/well in DMEM containing 10% FBS and 1% P/S and allowed to adhere overnight. D-DPB NPs, PepFect-siRNA polyplexes, and CADY-siRNA polyplexes were formulated and loaded with luciferase or scrambled siRNA as noted above. […] Luciferase gene silencing was calculated compared with cells treated with an equivalent dose of scrambled siRNA loaded into D-DPB NPs as a control.

HMVECs = experiment: Vivo-morpholino colocalization with LysoTracker Red; assay type: cell-based, human; conditions: delivery with either 2.5 or 5 µM PPAA, 5 µM vivo-morpholino
Procedure: HMVECs were seeded into Lab-Tek II 8-well chambered coverslips at a density of 10,000 cells/well and incubated overnight. […] Lysotracker staining, imaging of cells, and image processing was carried out as noted above in the peptide endosomal escape experiment.

[2] = tested on: human coronary artery vascular smooth muscle cells (HCAVSMCs); experiment: Flow cytometric uptake and retention of fluorescently labeled peptide; conditions: 5 µM Alexa-488 labeled peptide, mass ratios 3:1 to 1:20 peptide:polymer, 30 min, flow cytometry
Procedure: (§1) Cells were treated as defined in the following sections in Opti-MEM medium supplemented with 1% penicillin-streptomycin and 1% FBS. For all flow cytometry assays, following treatment or post-treatment incubation, cells were washed 2× in PBS without calcium or magnesium, harvested with 0.05% trypsin-EDTA, centrifuged, resuspended in 300 µL of 0.05% Trypan blue in PBS without calcium or magnesium, and transferred to a 96-well plate for analysis on an EMD Millipore Guava easyCyte™ 5HT flow cytometer with InCyte software for data acquisition. […] All samples were run in triplicate. All flow cytometric uptake data are presented as fold increase in peptide, vivo-morpholino, or nanoparticle uptake relative to treatment with an equivalent dose of the corresponding fluorescently labeled peptide, vivo-morpholino, or nanoparticle formulation alone. Absolute fluorescence data of peptide uptake is shown in the supplement (Supplementary Figs. 4 and 7).
(§2) Cells were then treated with each formulation for 30 min.
Cell culture medium containing the polymer treatment was then aspirated, and cells were subsequently treated with fluorescent peptide or vivo-morpholino alone for 30 min.
HCAVSMCs were seeded and treated for 30 min as noted above.

HEK 293-T LgBiT cells = experiment: NanoLuc luciferase intracellular bioavailability assay; assay type: cell-based, human; conditions: sequential delivery of 5 µM PPAA followed by 0.5 or 1 µM YARA-HiBiT, 30 min each; 6 h incubation
Procedure: HEK 293-T LgBiT cells were seeded into a collagen-coated 96-well plate in DMEM with 10% FBS and 1% P/S and allowed to incubate for 24 h. […] The treatment was then removed and cells were incubated in 10% FBS media for 6 h. Prior to reading, the TECAN Infinite M1000 Pro plate reader was warmed to 37 °C. The cells were treated with 1 μM DrkBiT for 2 min, after which the NanoLuc substrate was added. The plate was immediately read on the plate reader in a kinetic luminescence cycle for 20 min. Peak luminescence data points were calculated by taking the average of the five readings at the peak of the kinetic curve.

[3] = tested on: HCAVSMCs, HMVECs, RAW 264.7, MCF7, and HEK 293T cells; experiment: Polymer dose-dependent YARA-MK2i uptake in five cell types; conditions: co-delivery with 2–5 µM PPAA; all five cell lines; flow cytometry
Procedure: as §1, §2

[4] = read-out: inhibition of YARA-MK2i peptide uptake, co-delivery with 5 µM PPAA, inhibitor (100 nM wortmannin, 100 µM dynasore) 30 min pretreatment and throughout treatment
[5] = read-out: inhibition of YARA-MK2i peptide uptake, sequential delivery, 5 µM PPAA then peptide, inhibitor (100 nM wortmannin, 100 µM dynasore) 30 min pretreatment and throughout treatment

O=C(N/N=C/c1ccc(O)c(O)c1)c1cc2ccccc2cc1O [dynasore, Dynasore]
effect on uptake of fluorescent PPAA polymer (without peptide) (HCAVSMCs; 0-200 µM dynasore, 30 min pretreatment, rhodamine labeled PPAA): dose-dependently inhibited internalization
inhibition at 100 µM (HCAVSMCs; [4]): ~30%
inhibition at 100 µM (HCAVSMCs; [5]): ~44%
effect of inhibitor during PPAA pretreatment only on subsequent YARA-MK2i peptide uptake (HCAVSMCs): dose-dependent increase in subsequent YARA-MK2i peptide internalization

COC[C@H]1OC(=O)c2coc3c2[C@@]1(C)C1=C(C3=O)[C@@H]2CCC(=O)[C@@]2(C)C[C@H]1OC(C)=O [wortmannin, Wortmannin]
inhibition at 0.1 µM (HCAVSMCs; [4]): ~69%
inhibition at 0.1 µM (HCAVSMCs; [5]): ~89%
effect of inhibitor during PPAA pretreatment only on subsequent YARA-MK2i peptide uptake (HCAVSMCs): significantly reduced subsequent peptide uptake

Ac-GLWRALWRLLRSLWRLLWRA-cya (Ac-GLWRALWRLLRSLWRLLWRA-cysteamide) [CADY, secondary amphipathic CPP, nucleic acid delivery vector]
effect of PPAA pretreatment on gene-silencing activity of siRNA polyplexes [1]: enhanced the gene-silencing activity

CD47 vivo-morpholino: phosphorodiamidite morpholino oligomer conjugated to a cationic octa-guanidine dendrimer; 5′-CGTCACAGGCAGGACCCACTGCCCA (all phosphorodiamidate morpholino (PMO); octa-guanidine dendrimer conjugated, position not given here, further chemistry not fully specified)
colocalization with the endolysosomal dye LysoTracker Red (HMVECs): significantly reduced CD47 vivo-morpholino colocalization

Dextran sulfate
effect of inhibitor during PPAA pretreatment only on subsequent YARA-MK2i peptide uptake (HCAVSMCs): Neither methyl-β-cyclodextrin nor dextran sulfate addition during PPAA pretreatment had any effects on subsequent peptide uptake

GRKKRRQRRRPPQKALARQLGVAA [TAT-MK2i]
effect of co-delivery with PPAA (pre-complexed NPs) on peptide uptake [2]: consistently increased peptide uptake

KLRKVSpK [VASP (no CPP)]
effect of co-delivery with PPAA (pre-complexed NPs) on peptide uptake [2]: no polymer effect on uptake

Methyl-β-cyclodextrin
effect of inhibitor during PPAA pretreatment only on subsequent YARA-MK2i peptide uptake (HCAVSMCs): Neither methyl-β-cyclodextrin nor dextran sulfate addition during PPAA pretreatment had any effects on subsequent peptide uptake

RQIKIWFQNRRMKWKKKALARQLGVAA [Penetratin-MK2i]
effect of co-delivery with PPAA (pre-complexed NPs) on peptide uptake [2]: did not display significant PPAA-mediated enhancement of uptake with co-delivery

RRRRRRKALARQLGVAA [R6-MK2i]
effect of co-delivery with PPAA (pre-complexed NPs) on peptide uptake [2]: consistently increased peptide uptake

Stearyl-AGYLLGKLLOOLAAAALOOLL [PepFect, stearylated, secondary amphipathic CPP, nucleic acid delivery vector]
effect of PPAA pretreatment on gene-silencing activity of siRNA polyplexes [1]: enhanced the gene-silencing activity

YARAAARQARA-HiBiT [YARA-HiBiT, YARA CPP fused to the HiBiT peptide of the NanoLuc platform]
intracellular delivery (NanoLuc luminescence) (HEK 293-T LgBiT cells): significantly enhanced intracellular delivery

YARAAARQARA-KLRKVSpK [YARA-VASP]
effect of co-delivery with PPAA (pre-complexed NPs) on peptide uptake [2]: Very similar trends in PPAA dose-dependent uptake

YARAAARQARAKALARQLGVAA [YARA-MK2i]
fold increase in uptake of the YARA-MK2i peptide [3]: 10–30 fold
